Measured values as given in ChEMBL document CHEMBL4382290, “Tetrahydroisoquinoline CXCR4 Antagonists Adopt a Hybrid Binding Mode within the Peptide Subpocket of the CXCR4 Receptor” (ACS Med Chem Lett, 2019).

Test system: Human immunodeficiency virus 1
Assay: Antiviral activity against CXCR4 tropic HIV1 3B infected in human MAGI-CCR5/CXCR4 cells measured after 2 to 6 days by beta-galactosidase reporter gene assay
Type: functional, organism-based
Details: Human immunodeficiency virus 1, 3B

Row | SMILES | IC50 [µM]
1 | NCCCCN(C[C@H]1NCCc2ccccc21)[C@H]1CCCc2cccnc21 | 0.45
2 | NCCCCN(C[C@@H]1NCCc2ccccc21)[C@H]1CCCc2cccnc21 | 30
3 | NCCCCN(C[C@@H]1CCc2ccccc2N1)[C@H]1CCCc2cccnc21 | 30
4 | NCCCCN(C[C@H]1CCc2ccccc2N1)[C@H]1CCCc2cccnc21 | 0.25
5 | Cc1ccc(-c2ccc3c(c2)C=C(C(=O)Nc2ccc(C[N+](C)(C)C4CCOCC4)cc2)CCC3)cc1 | > 10
6 | NCCCCN(C[C@H]1CCCCN1)[C@H]1CCCc2cccnc21 | 1.12
7 | NCCN(C[C@H]1Cc2ccccc2CN1)[C@H]1CCCc2cccnc21 | 6.2
8 | NCCCCN(C[C@H]1Cc2ccccc2CN1)[C@H]1CCCc2ccccc21 | 1.5

Second part, the compound after the results:

Row | IC50 [µM] | SMILES
9 | 1.4 | NCCCCN(C[C@@H]1Cc2ccccc2CN1)[C@H]1CCCc2cccnc21
10 | 0.005 | NCCCCN(C[C@H]1Cc2ccccc2CN1)[C@H]1CCCc2cccnc21
11 | 0.38 | NCCCN(C[C@H]1Cc2ccccc2CN1)[C@H]1CCCc2cccnc21
12 | 0.17 | NCCCCCN(C[C@H]1Cc2ccccc2CN1)[C@H]1CCCc2cccnc21
